Read-outs that look alike come from different tables or passages of the source.
Test system: α7 integrin (LacZ reporter in α7LacZ+/− myoblasts)
Experiment: qHTS of the LOPAC library and MLSMR (online screen, α7LacZ+/− myoblasts)
Settings: for activation at 0.307 µM / activation at 1.53 µM / activation at 7.66 µM / activation at 38.3 µM / Emax / EC50: Mus musculus, Myoblast; for activation at 0.307 µM: read-out: Activity at 0.307 uM [%] **; for activation at 1.53 µM: read-out: Activity at 1.530 uM [%] **; for activation at 7.66 µM: read-out: Activity at 7.660 uM [%] **; for activation at 38.3 µM: read-out: Activity at 38.30uM [%] **; for EC50: read-out: Fit LogAC50 (converted); for Score: Table 8 Compound data
[1] = 48 h, read-out: Fit Infinite Activity [%]

Row | SMILES | activation at 0.307 µM (48 h) [%] | activation at 1.53 µM (48 h) [%] | activation at 7.66 µM (48 h) [%] | activation at 38.3 µM (48 h) [%] | Emax [1] [%] | EC50 [µM] | Emax (read-out: Max Response [%]) [%] | Score | Curve Description
1 | O=C(Nc1cc(Br)ccc1O)C1CC(c2ccccc2Cl)=NO1 (stereo not shown) [Compound 108] | 2.03 | 3.14 | 15.3 | 141 | 142 | 12.6 | 141 |  | 
2 | COc1ccc2oc(C[S+]([O-])c3ccccc3)c(C(=O)O)c2c1 (stereo not shown) [Compound 109] | 5.2 | 10.1 | 20.9 | 174 | 174 | 12.6 | 174 |  | 
3 | Oc1c(Br)cc(Br)cc1CNc1cccc2cccnc12 [Compound 110] | -18.9 | -17.9 | 0 | 161 | 163 | 12.6 | 161 | 43 | 
4 | CCCCS(=O)(=O)N1CCCC(C(=O)NCCc2ccccc2)C1 (stereo not shown) [Compound 111] | 4.12 | 15.4 | 54.6 | 89.9 | 101 | 7.08 | 89.9 |  | 
5 | O=[N+]([O-])c1ccc(Cl)cc1N/N=C/c1ccncc1 [Compound 112] | 0 | 1.53 | 54 | 73.8 | 74 | 5.62 | 73.8 | 43 | 
6 | NC(=O)c1cccnc1Oc1ccc(Cl)cc1Cl [Compound 113] | -4.94 | -7.73 | 23.5 | 105 | 106 | 10 | 105 |  | 
7 | Cc1ccc(NC(=O)C2CCCCC2C(=O)O)cc1C (stereo not shown) [Compound 114] | -6.72 | -1.25 | 17.2 | 135 | 135 | 11.2 | 135 |  | 
8 | CCOc1ccc2oc(C(=O)OCC(=O)NC(=O)NC)c(C)c2c1 [Compound 115] | -3.94 | 0 | 40.2 | 77.6 | 80.7 | 7.08 | 77.6 |  | 
9 | CN(C)S(=O)(=O)c1ccc(C(=O)Nc2nc3ccccc3[nH]2)cc1 [Compound 116] | -9.1 | -3.94 | 36.7 | 84.9 | 94.8 | 8.91 | 84.9 |  | 
10 | NC1=Nc2cccc3cccc1c23 [Compound 117] | 0 | 5.07 | 43.6 | 82.2 | 88.8 | 7.94 | 82.2 |  | 
11 | C/N=c1\scc(-c2ccc(OC)cc2)n1/N=C(\C)c1cccnc1 [Compound 118] | -8.12 | 2.29 | 48.7 | 73.6 | 74.9 | 5.01 | 73.6 |  | 
12 | O=C(COC(=O)Cn1cnc2ccccc21)Nc1cccc([N+](=O)[O-])c1 [Compound 119] | -17.1 | -14.7 | 0.628 | 112 | 112 | 11.2 | 112 |  | 
13 | Cc1ccc(CNc2ncnc(N)c2[N+](=O)[O-])cc1 [Compound 120] | 17.8 | 33.8 | 63.4 | 97.4 | 127 | 10 | 97.4 |  | 
14 | CN(C)/C=N/c1nccc(-c2cccs2)n1 [Compound 121] | 6.86 | 8.46 | 45 | 92.6 | 97.8 | 8.91 | 92.6 |  | 
15 | Cc1cc(N2CCOCC2)nc2ccc(N/C(S)=N/Cc3ccc4c(c3)OCO4)cc12 [Compound 122] | 2.5 | 11.5 | 54 | 107 | 128 | 10 | 107 |  | 
16 | COCCN1C=C(C(=O)OC)C(c2ccccc2Cl)C(C(=O)OC)=C1 [Compound 123] | 5.12 | 12.1 | 45.1 | 85.5 | 96.9 |  | 85.5 |  | 
17 | O=C(NCCCn1ccnc1)/C(=C/c1cccs1)NC(=O)c1ccco1 [Compound 124] | -19.2 | -7.39 | 35.5 | 85.9 | 103 |  | 85.9 |  | 
18 | N=C(NOC(=O)COc1cc(Cl)c(Cl)cc1Cl)c1ccncc1 [Compound 125] | 0 | 9.26 | 50.4 | 108 | 134 |  | 108 |  | 

Row | SMILES | activation at 0.307 µM (48 h) [%] | activation at 1.53 µM (48 h) [%] | activation at 7.66 µM (48 h) [%] | activation at 38.3 µM (48 h) [%] | Emax [1] [%] | EC50 [µM] | Emax (read-out: Max Response [%]) [%] | Score | Curve Description
19 | Cc1ccc(-c2csc(Nc3ccc(C(=O)O)cc3)[n+]2Cc2ccccc2)cc1 [Compound 126] | 5.18 | 19 | 58.1 | 102 | 125 |  | 102 |  | 
20 | Cc1cc(-c2ccccc2)n2nc(N)nc2n1 [Compound 127] | -20 | -16.1 | -2.95 | 151 | 152 |  | 151 |  | 
21 | O=C(N/N=C/c1cn[nH]c1-c1ccc(F)cc1)c1ccncc1 [Compound 128] | 17.3 | 12.6 | 22.6 | 152 | 154 |  | 152 |  | 
22 | CC(/C=C(\O)c1ccccc1)=N\c1ccc(Br)c(Cl)c1 [Compound 130] | 7.18 | 9.18 | 26.1 | 127 | 128 |  | 127 |  | 
23 | Cc1ccc(NC(=O)COc2ccccc2CNC(C)(C)CC(C)(C)C)cc1 [Compound 131] | 10.7 | 7.12 | 16.2 | 182 | 184 |  | 182 |  | 
24 | Cc1nc2c([nH]1)OC(N)=C(C#N)C21CCN(Cc2ccccc2)CC1 [Compound 132] | 11.1 | 13.8 | 23 | 133 | 133 |  | 133 |  | Partial
25 | O=C(CSc1nnc(C2CC2)n1C1CC1)c1cccs1 [Compound 133] | -26 | -28.4 | 5.99 | 70.2 | 73.1 | 10 | 70.2 |  | 
26 | CSc1ncccc1C(=O)OCC(=O)c1cc(C)n(C)c1C [Compound 134] | -21 | -23.9 | -0.0686 | 72.9 | 72.9 | 10 | 72.9 |  | 
27 | CCc1c(C2(O)CCCCC2)[nH]c2ncccc12 [Compound 135] | -28.5 | -29.4 | -11.2 | 62 | 61.8 | 10 | 62 |  | 
28 | O=C(Nc1ccc(S(=O)(=O)Nc2nccs2)cc1)c1ccccc1OC(F)F [Compound 137] | -19.2 | -19.4 | -1.67 | 61.8 | 61.7 | 10 | 61.8 |  | 
29 | O=C1CCc2cc(S(=O)(=O)Nc3ccc(C(F)(F)F)cc3)cc3c2N1CC3 [Compound 138] | -26.1 | -19.1 | 23.6 | 85.8 | 108 |  | 85.8 |  | 
30 | COc1ccccc1C(=O)NCC(=O)/N=N/c1c(O)n(C(C)C)c2ccccc12 [Compound 139] | 15.2 | 14.6 | 25 | 81.7 | 82 |  | 81.7 |  | 
31 | Cn1ccc(C(=O)Nc2cccnc2Cl)n1 [Compound 140] | -2.76 | -4.96 | 22.8 | 76 | 77.9 | 10 | 76 |  | 
32 | COC(=O)c1ccc(C2C(C(=O)c3cc4ccccc4o3)=C(O)C(=O)N2CCN2CCOCC2)cc1 (stereo not shown) [Compound 141] | -17.2 | -18.3 | 2.6 | 82.7 | 82.8 | 10 | 82.7 |  | 
33 | COc1cc(NC(=O)C2C3C=CC(C3)C2C(=O)O)ccc1NC(=O)c1ccccc1 (stereo not shown) [Compound 142] | -17.1 | -18.7 | 16.8 | 68.9 | 71.2 |  | 68.9 |  | 
34 | COCc1c(C(=O)N/N=C(\C)c2ccc(OCc3ccccc3)cc2)nnn1-c1nonc1N [Compound 143] | 4.28 | 4.88 | 22.4 | 80.8 | 81.3 | 10 | 80.8 |  | 
35 | O=C(Nc1ccc(N2CCN(C(=O)c3ccccc3F)CC2)cc1)c1cncc(Br)c1 [Compound 144] | 8.54 | 11.1 | 20.4 | 103 | 104 |  | 103 |  | 

Source: US9980943B2, “Methods of treating muscular dystrophy” (BOARD OF REGENTS OF THE NEVADA SYSTEM OF HIGHER EDUCATION, …, priority 2013, dated 2018)
